{"source": "paper doi:10.1101/2023.05.09.538545v2", "about": "“Engineering dynamic gates in binding pocket of penicillin G acylase to selectively degrade bacterial signaling molecules” (biorxiv, 2024)", "molecular_target": "T1, ecPGA (Escherichia coli penicillin G acylase) (Escherichia coli, UniProt P06875)", "T1 construct": "gene pac; mature alpha/beta heterodimer cut from one precursor (signal peptide and spacer removed); ecpga gene in pET-26b, E. coli BL21(DE3), purified after Kutzbach and Rauenbusch; His-tagged version made for melting analysis; WT source plasmid pKA18", "T1 sequence (P06875 27-235)": "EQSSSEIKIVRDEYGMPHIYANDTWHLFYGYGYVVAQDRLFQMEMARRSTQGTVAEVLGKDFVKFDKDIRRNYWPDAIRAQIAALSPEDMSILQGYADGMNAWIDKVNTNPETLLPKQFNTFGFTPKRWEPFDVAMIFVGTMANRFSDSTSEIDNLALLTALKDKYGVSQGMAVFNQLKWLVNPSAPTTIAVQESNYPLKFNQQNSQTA", "T1 sequence (P06875 290-846)": "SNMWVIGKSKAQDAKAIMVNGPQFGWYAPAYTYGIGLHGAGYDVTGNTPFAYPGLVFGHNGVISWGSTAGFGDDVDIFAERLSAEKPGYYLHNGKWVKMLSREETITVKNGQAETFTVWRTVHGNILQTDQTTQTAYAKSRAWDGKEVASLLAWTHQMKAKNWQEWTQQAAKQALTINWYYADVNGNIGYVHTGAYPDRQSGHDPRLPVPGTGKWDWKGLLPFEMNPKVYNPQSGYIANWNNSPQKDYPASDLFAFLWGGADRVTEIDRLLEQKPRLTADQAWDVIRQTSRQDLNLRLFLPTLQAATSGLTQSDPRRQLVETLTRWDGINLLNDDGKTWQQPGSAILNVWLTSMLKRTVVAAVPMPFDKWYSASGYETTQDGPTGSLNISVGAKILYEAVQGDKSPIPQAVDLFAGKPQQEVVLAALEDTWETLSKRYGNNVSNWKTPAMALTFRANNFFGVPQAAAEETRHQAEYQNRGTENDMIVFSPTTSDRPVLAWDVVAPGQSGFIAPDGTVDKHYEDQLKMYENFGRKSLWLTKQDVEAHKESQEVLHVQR", "assay": "HPLC of AHL hydrolysis at […] nm, initial rates", "assay_type": "biochemical"}
{"smiles": "CCCCCCCC(=O)N[C@H]1CCOC1=O", "note": "[C08, N-octanoyl-L-homoserine lactone]", "values": [{"measurement": "Km", "result": "700 ± 40", "unit": "µM"}]}
